Experimental data published in US20050222136A1, “Active substance combination” (priority 2004, published 2005).
Structures can show the parent of a compound that is named as a salt.

Experiments:
Assay type in all cases: in vivo
male Wistar albino rats = test: Determination of ulcerogenic effect in rats; settings: stomach three hours after administration
Procedure: II. Determination of Ulcerogenic Effect in Rats The ulcerogenic effect of the inventive active substance combination is determined in male Wistar albino rats (body weight 160-200 g, obtained from Harlan, S. Feliu de Codinas, Spain) according to the method described in the publication of J. L. Wallace et al., […]. 1990, 259, […]-[…]. The respective part of the description is incorporated by reference and forms part of the present disclosure. Prior to the tests the rats are kept in cages for 24 hours with free access to drinking water. Afterwards the substances to be tested are orally administered to the rats in form of a 5% by weight suspension in arabic gum. Three hours after the administration of the respective substances to be tested the rats are sacrificed by inhalation of carbon dioxide, the stomachs are removed, opened along the great curvature, washed with saline solution and extended over a suitable frame. By the use of a Projectt 1.2 image analyzer (Projectt, Barcelona, Spain) the ulcerated areas of the stomachs are determined and their size expressed in mm^2.

male Swiss albino mice [1] = test: Writhing test in mice (phenylbenzoquinone-induced writhing reactions); settings: for inhibition at 40 mg/kg / inhibition at 80 mg/kg / inhibition at 160 mg/kg / ED50: Mus musculus; for inhibition at 40 mg/kg / inhibition at 80 mg/kg / inhibition at 160 mg/kg / Writhing test % Activity: 60 minutes prior to phenylbenzoquinone i.p., inhibition of writhing reactions vs control; for ED50: po; for ED50 / Writhing test ED50: mice; for Writhing test ED50: p.o., in mg/kg
Procedure: Ia. Writhing Test in Mice
(§1) The Writhing test for the determination of the analgesic activity of the inventive active substance combination is carried out according to the method described in the publication of E. Siegmund et al., Proc. Soc. Exp. Biol. Med. 1957, 95, 729-731 using male Swiss albino mice (20-25 g body weight, obtained from Harlan, S. Feliu de Codinas, Spain). The respective part of the description is hereby incorporated by reference and forms part of the respective disclosure.
The Writhing reactions are induced by intraperitoneal injection of phenylbenzoquinone (25 ml/kg in a 0.02% (volume/volume) ethanolic solution in a 5% (volume/volume) solution in destillated water with Evan's blue in an amount of 0.1% weight/volume) and the writhing reactions are counted during a 15 minute period following the injection. The substances to be tested are orally administered 60 minutes prior to the injection of the phenylbenzoquinone solution. The percentage of the inhibition of the writhing reactions is calculated on the basis of the control group as basis for 0% inhibition.

male Swiss albino mice [2] = test: Formaline test in mice; settings: for inhibition at 40 mg/kg: Mus musculus, ip
Procedure: Ib. Formaline Test in Mice
as §1, with “Formaline” for “Writhing”, “T. Ohkubo” for “E. Siegmund”, “J. Pharmacol.” for “Proc. Soc.”, “Ther. 1990, 252, 1261-1268” for “Biol. Med. 1957, 95, 729-731”
The substances to be tested are intraperitoneally administered to the mice in 5% by weight solution of arabic gum in destined water as vehicle. 15 minutes later 20 μl of a 5% by weight solution of formaline in saline solution is injected into the back of the right paw of the animals. The total time in seconds of licking and/or biting the injected paw is registered in the acute phase, i.e. 0-5 minutes (phase I), and in the chronic phase, i.e. 15-30 (phase II), minutes after injection of the formaline. The percentage of inhibition is calculated based on the medium values of the acute and chronic phases of the control group as 0% inhibition of the primary and secondary response.

[3] = 40 mg/kg i.p., acute phase 0-5 minutes after formaline, inhibition of licking/biting time, read-out: Formaline test % Activity Phase I
[4] = read-out: Formaline test % Activity Phase II

O=C(O)Cc1ccccc1Nc1c(Cl)cccc1Cl [Diclofenac-sodium, diclofenac in form of its sodium salt, reference compound]
Ulcerated area (male Wistar albino rats; 40 mg/kg p.o.): 3.81 mm^2
Ulcerated area (male Wistar albino rats; 80 mg/kg p.o.): 13.7 mm^2
inhibition at 40 mg/kg (male Swiss albino mice [1]; 40 mg/kg p.o.): 19.8%
inhibition at 80 mg/kg (male Swiss albino mice [1]; 80 mg/kg p.o.): 54.9%
inhibition at 160 mg/kg (male Swiss albino mice [1]; 160 mg/kg p.o.): 84.1%
ED50 (male Swiss albino mice [1]): 75.1 mg/kg

CC(C)Cc1ccc(C(C)C(=O)O)cc1 (stereo not shown) [Ibuprofen, reference compound]
inhibition at 40 mg/kg (male Swiss albino mice [1]; 40 mg/kg p.o.): 19.8%
inhibition at 80 mg/kg (male Swiss albino mice [1]; 80 mg/kg p.o.): 47.6%
inhibition at 160 mg/kg (male Swiss albino mice [1]; 160 mg/kg p.o.): 62.9%
ED50 (male Swiss albino mice [1]): 103 mg/kg

CC(C)Cc1ccc(C(C)C(=O)O)cc1.[Na] (stereo not shown) [Ibuprofen-sodium, ibuprofen-sodium, reference compound]
Ulcerated area (male Wistar albino rats; 80 mg/kg p.o.): 5.29 mm^2

COc1ccc2cc([C@H](C)C(=O)O)ccc2c1 [Naproxen, reference compound]
Ulcerated area (male Wistar albino rats; 80 mg/kg p.o.): 10.5 mm^2
inhibition at 40 mg/kg (male Swiss albino mice [2]; [3]): 31.5%
inhibition at 40 mg/kg (male Swiss albino mice [2]; [4]): 18%
inhibition at 40 mg/kg (male Swiss albino mice [1]; 40 mg/kg p.o.): 32%
inhibition at 80 mg/kg (male Swiss albino mice [1]; 80 mg/kg p.o.): 51.2%
inhibition at 160 mg/kg (male Swiss albino mice [1]; 160 mg/kg p.o.): 78.5%
ED50 (male Swiss albino mice [1]): 71.2 mg/kg

CN(C)CCO[C@H](c1ccccc1)c1ccnn1C.O=C(O)Cc1ccccc1Nc1c(Cl)cccc1Cl [R-(+)-Cizolirtine diclofenacate, R-(+)-5-[α-[2-(Dimethylamino)ethoxy]benzyl]-1-methyl-1H-pyrazole diclofenacate]
Ulcerated area (male Wistar albino rats; 80 mg/kg p.o.): 2.75 mm^2
Ulcerated area (male Wistar albino rats; 160 mg/kg p.o.): 7.24 mm^2
Writhing test % Activity (male Swiss albino mice [1]; 40 mg/kg p.o.): 14.7%
Writhing test % Activity (male Swiss albino mice [1]; 80 mg/kg p.o.): 57.3%
Writhing test % Activity (male Swiss albino mice [1]; 160 mg/kg p.o.): 72.1%
Writhing test ED50 (male Swiss albino mice [1]): 84

CC(C)Cc1ccc([C@H](C)C(=O)O)cc1.CN(C)CCO[C@H](c1ccccc1)c1ccnn1C [R-(+)-Cizolirtine ibuprofenate, R-(+)-5-[α-[2-(Dimethylamino)ethoxy]benzyl]-1-methyl-1H-pyrazole S-(+)-ibuprofenate]
Ulcerated area (male Wistar albino rats; 160 mg/kg p.o.): 3.21 mm^2
Writhing test % Activity (male Swiss albino mice [1]; 40 mg/kg p.o.): 15.9%
Writhing test % Activity (male Swiss albino mice [1]; 80 mg/kg p.o.): 45%
Writhing test % Activity (male Swiss albino mice [1]; 160 mg/kg p.o.): 80.9%
Writhing test ED50 (male Swiss albino mice [1]): 84.8

CN(C)CCO[C@H](c1ccccc1)c1ccnn1C.COc1ccc2cc([C@H](C)C(=O)O)ccc2c1 [R-(+)-Cizolirtine naproxenate, R-(+)-5-[α-[2-(Dimethylamino)ethoxy]benzyl]-1-methyl-1H-pyrazole naproxenate]
Ulcerated area (male Wistar albino rats; 160 mg/kg p.o.): 6.86 mm^2
Formaline test % Activity Phase I (male Swiss albino mice [2]; 40 mg/kg i.p., acute phase 0-5 minutes after formaline, inhibition of licking/biting time): 49%
Formaline test % Activity Phase II (male Swiss albino mice [2]; 40 mg/kg i.p., chronic phase 15-30 minutes after formaline, inhibition of licking/biting time): 36%
Writhing test % Activity (male Swiss albino mice [1]; 40 mg/kg p.o.): 32.0%
Writhing test % Activity (male Swiss albino mice [1]; 80 mg/kg p.o.): 52.0%
Writhing test % Activity (male Swiss albino mice [1]; 160 mg/kg p.o.): 77.3%
Writhing test ED50 (male Swiss albino mice [1]): 71.29

CN(C)CCO[C@H](c1ccccc1)c1ccnn1C [R-(+)-Cizolirtine, R-(+)5-[α-[2-(Dimethylamino)ethoxy]benzyl]-1-methyl-1H-pyrazole]
inhibition at 40 mg/kg (male Swiss albino mice [2]; [3]): 83%
inhibition at 40 mg/kg (male Swiss albino mice [2]; [4]): 68.5%
Writhing test % Activity (male Swiss albino mice [1]; 40 mg/kg p.o.): 28.9%
inhibition at 40 mg/kg (male Swiss albino mice [1]; 40 mg/kg p.o.): 29%
inhibition at 80 mg/kg (male Swiss albino mice [1]; 80 mg/kg p.o.): 49.7%
inhibition at 160 mg/kg (male Swiss albino mice [1]; 160 mg/kg p.o.): 72.5%
ED50 (male Swiss albino mice [1]): 79 mg/kg
Writhing test ED50 (male Swiss albino mice [1]): 79

CN(C)CCO[C@@H](c1ccccc1)c1ccnn1C.COc1ccc2cc([C@H](C)C(=O)O)ccc2c1 [S-(−)-Cizolirtine naproxenate, S-(−)-5-[α-[2-(Dimethylamino)ethoxy]benzyl]-1-methyl-1H-pyrazole naproxenate]
Writhing test % Activity (male Swiss albino mice [1]; 40 mg/kg p.o.): 26.7%
Writhing test % Activity (male Swiss albino mice [1]; 80 mg/kg p.o.): 52.4%
Writhing test % Activity (male Swiss albino mice [1]; 160 mg/kg p.o.): 68.5%
Writhing test ED50 (male Swiss albino mice [1]): 82.15

CN(C)CCO[C@@H](c1ccccc1)c1ccnn1C [S-(−)-Cizolirtine, S-(−)-5-[α-[2-(Dimethylamino)ethoxy]benzyl]-1-methyl-1H-pyrazole]
Writhing test % Activity (male Swiss albino mice [1]; 40 mg/kg p.o.): 29.0%
Writhing test % Activity (male Swiss albino mice [1]; 80 mg/kg p.o.): 49.7%
Writhing test % Activity (male Swiss albino mice [1]; 160 mg/kg p.o.): 59.7%
Writhing test ED50 (male Swiss albino mice [1]): 95.26
